Legend:
[1] = system: aggressive soft tissue sarcoma characterized as either a malignant Schwannoma or a tendosynovial sarcoma; conditions: human, in vivo
[2] = system: adenocarcinoma originating in the ethmoid sinus; conditions: human, in vivo

Nc1nc2c(c(=O)[nH]1)C[C@@H](CCc1ccc(C(=O)N[C@@H](CCC(=O)O)C(=O)O)cc1)CN2 [Lometrexol, 5,10-dideaza-5,6,7,8-tet-rahydrofolic acid]
clinical response in the irradiated field [1]: dramatic | lometrexol retention in the patients body [1]: prolonged | mucositis due to the drug [1]: mild mucositis | thrombocytopenia to [1]: 55,000 | tumor course after lometrexol, before radiation [1]: continued to rapidly progress | change of massively enlarged liver (hepatic metastases) after treatment [2]: marked shrinkage | duration of prolonged thrombocytopenia and anemia [2]: over 7 weeks | persistent anemia at a Hgb of [2]: 5.4
